Measured values from patent EP3744729B1, “PEPTIDES, COMPOSITIONS COMPRISING THEM AND COSMETIC AND DERMOPHARMACEUTICAL USES” (SEDERMA, priority 2009, dated 2023).
Where a SMILES comes first, the peptide text is derived from it. [ ]: non-standard residue; d: D form. The star is where a group is joined. Met(O2) = CS(=O)(=O)CC[C@H](N)C(=O)O; Palmitoyl = CCCCCCCCCCCCCCCC(=O)*

Assays:
[1] = test system: normal human dermal fibroblasts (NHF); assay: ELISA test on normal human dermal fibroblasts (NHF): macromolecules in culture supernatant; type: cell-based; conditions: % difference compared to the control; for Collagen I in the dermis: 3 days contact; for Collagen I in the dermis Test 1: Table 7
Description: > ELISA test on normal human dermal fibroblasts (NHF)
This test examines the dermal molecules.
Normal human dermal fibroblasts are cultured in multi-well plates. The cells either are or are not placed in contact with the test substances for 3 days. The culture supernatants are removed and the quantity of macromolecules present (collagen I, fibronectin, collagen IV and hyaluronic acid) is assayed by ELISA.

[2] = test system: normal human dermal fibroblasts (NHF); assay: Immunofluorescence (IMF) on normal human dermal fibroblasts (NHF): collagen III; type: cell-based; conditions: 5 ppm peptide
Description: > Immunofluorescence (IMF) on normal human dermal fibroblasts (NHF)
This test examines dermal molecules.
Norman human fibroblasts are cultured in plates. The cells either are or are not placed in contact with the test substances for […]. The cell layers are then labeled with antibodies specifically recognizing collagen III. Photographs were used to reveal and quantify the synthesis of collagen III.

dermal NHF = assay: Immunostaining method on dermal NHF: collagen I (Table 7, Test 2); type: cell-based, human; conditions: % difference compared to the control
Description: Table 7 showing % differences in collagen I in the dermis compared to the control for dioxygenated peptide compounds according to the immunostaining method or to ELISA test on dermal NHF

Human Keratinocytes (HK) = assay: ELISA test on Human Keratinocytes (HK): macromolecules in culture supernatant; type: cell-based; conditions: epidermal HK, % difference compared to the control
Description: > ELISA test on Human Keratinocytes (HK)
This test examines epidermal molecules.
Human keratinocytes are cultured in multi-well plates. The cells either are or are not placed in contact with the test substances for 3 days. The culture supernatants are removed and the quantity of macromolecules present (fibronectin, laminins and hyaluronic acid) is assayed by ELISA.

[3] = Table 5, ELISA, 5 ppm peptide, no plant

SMILES: CCCCCCCCCCCCCCCC(=O)N[C@@H](CCCCN)C(=O)N[C@@H](CCS(C)(=O)=O)C(=O)N[C@@H](CCCCN)C(=O)O [Pal-KMO2K-OH] (Palmitoyl-Lys-[Met(O2)]-Lys-OH)
- Coll. I ([1]; 4 ppm peptide): +188%
- Coll. IV ([1]; 4 ppm peptide): +27%
- Collagen I in the dermis ([1]; 4 ppm peptide): +188%
- Coll. I ([1]; 6 ppm peptide): +187%
- Coll. IV ([1]; 6 ppm peptide): +97%
- Collagen I in the dermis ([1]; 6 ppm peptide): +187%
- Coll. I [1, 3]: +111%
- Coll. IV [1, 3]: +42%
- Fibronectin [1, 3]: +59%
- Hyaluronic acid [1, 3]: ≈0%
- Collagen I in the dermis Test 1 ([1]; 4 ppm): +188%
- Collagen I in the dermis Test 1 ([1]; 6 ppm): +187%
- Fibronectin ([1]; dermal NHF, 4 ppm peptide): +42%
- Hyaluronic acid ([1]; dermal NHF, 4 ppm peptide): ≈0%
- Fibronectin ([1]; dermal NHF, 6 ppm peptide): +109%
- Hyaluronic acid ([1]; dermal NHF, 6 ppm peptide): +55%
- Coll. III ([2]; % difference compared to the control, 35 days contact): +104%
- Coll. III ([2]; Table 5, % difference compared to the control, no plant): +104%
- Collagen I in the dermis Test 2 (dermal NHF; 2 ppm): +329%
- Collagen I in the dermis Test 2 (dermal NHF; 4 ppm): +423%
- Collagen I in the dermis Test 2 (dermal NHF; 5 ppm): +486%
- Hyaluronic acid (Human Keratinocytes (HK); Table 6, 2 ppm peptide, no plant): +44%
- Hyaluronic acid (Human Keratinocytes (HK); Table 6, 4 ppm peptide, no plant): +139%
- Hyaluronic acid (Human Keratinocytes (HK); Table 6, 5 ppm peptide, no plant): +172%
- Hyaluronic acid (Human Keratinocytes (HK); Table 6, 6 ppm peptide, no plant): +290%
- Fibronectin (Human Keratinocytes (HK); 4 ppm peptide): +35%
- Hyaluronic acid (Human Keratinocytes (HK); 4 ppm peptide): +139%
- Laminins (Human Keratinocytes (HK); 4 ppm peptide): +30%
- Fibronectin (Human Keratinocytes (HK); 5 ppm peptide): +65%
- Hyaluronic acid (Human Keratinocytes (HK); 5 ppm peptide): +172%
- Laminins (Human Keratinocytes (HK); 5 ppm peptide): +66%
- Fibronectin (Human Keratinocytes (HK); 6 ppm peptide): +159%
- Hyaluronic acid (Human Keratinocytes (HK); 6 ppm peptide): +290%
- Laminins (Human Keratinocytes (HK); 6 ppm peptide): +172%
